Key:
Format in all cases: cell-based
[1] = system: PHA-activated human mononuclear cells (MNZ); experiment: WST-1 cell proliferation assay, PHA-activated human mononuclear cells (MNZ)
Procedure: FIG. 7: The MNZ were incubated for a time period of 72 h without addition (control), with an addition of the mitogenic lectin phytohemagglutinin (PHA), and with the addition of PHA and the inhibitors mentioned above, respectively. Subsequently, the number amount of metabolically active cells was determined by using the commercially available WST-1 cell proliferation assay (Takara Inc.) in accordance with the provisions of the manufacturer.
FIG. 10: The mononuclear cells (MNZ) were incubated for a time period of 72 h in the presence of the inhibitors mentioned above single and in combination. Subsequently, the number of metabolically active cells was determined by using the commercially available WST-1 cell proliferation assay (Takara Inc.) in accordance with the provisions of the manufacturer.

[2] = system: human peripheric T lymphocytes; experiment: DNA synthesis of human peripheric T lymphocytes, 3[H]-thymidine incorporation; details: 72 h incubation
Procedure: The T cells were incubated for 72 h in the presence of said inhibitors and subsequently, the DNA synthesis rate was determined via a measurement of the ^3[H]-thymidin incorporation, as was described by Reinhold et al. [D. Reinhold et al,: “Inhibitors of dipeptidyl peptidase IV induce secretion of transforming growth factor β1 in PWM-stimulated PBMNC and T cells”, Immunology 1997, 91, 354-360].
Human peripheric T cells were incubated over 3 days with the concentrations of the inhibitors shown. Subsequently, ^3[H]-methyl thymidine was added to the culture medium, and the amount of ^3[H]-thymidine inserted into the DNA was measured after further 6 hours.
The T cells were incubated for 72 h in the presence of said inhibitors, and the DNA synthesis rate was determined subsequently by the measurement of the ^3[H]-thymidine incorporation, as was described by Reinhold et al. [D. Reinhold et al.: “Inhibitors of dipeptidyl peptidase IV induce secretion of transforming growth factor β1 in PWM-stimulated PBMNC and T cells”, Immunology 1997, 91, 354-360].
FIG. 3 show a the synergistic and dose-dependent effect of inhibitors of DP IV (I49) and of prolyl oligopeptidase (Boc-Ala-Thia) on the DNA synthesis of human peripheric T lymphocytes. Human T cells were incubated for three days with the concentrations of inhibitors mentioned above. Subsequently, ^3[H]-methyl thymidine was added to the culture medium, and the amount of ^3[H]-thymidine incorporated into the DNA was measured after further 6 hours.
Human T cells were incubated for three days with the concentrations of inhibitors mentioned above. Subsequently, ^3[H]-methyl thymidine was added to the culture medium, and the amount of ^3[H]-thymidine incorporated into the DNA was measured after further 6 hours.

[3] = system: human peripheric mononuclear cells (MNZ); experiment: DNA synthesis of human peripheric mononuclear cells (MNZ), 3[H]-thymidine incorporation; details: 72 h incubation
Procedure: The MNZ were incubated for 72 h in the presence of said inhibitors, and the DNA synthesis rate was determined subsequently by the measurement of the ^3[H]-thymidine incorporation, as was described by Reinhold et al. [D. Reinhold et al.: “Inhibitors of dipeptidyl peptidase IV induce secretion of transforming growth factor β1 in PWM-stimulated PBMNC and T cells”, Immunology 1997, 91, 354-360].
Human MNZ were incubated for three days with the concentrations of inhibitors mentioned above. Subsequently, ^3[H]-methyl thymidine was added to the culture medium, and the amount of ^3[H]-thymidine incorporated into the DNA was measured after further 6 hours.
The MNZ were incubated for 72 h in the presence of said inhibitors, and the DNA synthesis rate was determined subsequently by the measurement of the ^3[H]-thymidine incorporation, as was described by Reinhold et al. [D. Reinhold et al.; “Inhibitors of dipeptidyl peptidase IV induce secretion of transforming growth factor β1 in PWM-stimulated PBMNC and T cells”, Immunology 1997, 91, 354-360].

[4] = system: activated human peripheric T cells; experiment: WST-1 cell proliferation assay, activated human peripheric T cells; details: single or simultaneous administration of I49 and APN inhibitors Actinonin and Probestin; activation by phytohemagglutinine and phorbol-12-myristate-13-acetate; 72 h (FIG. 9)
Procedure: FIG. 9: The T cells, with the exception of the untreated control, were activated by an addition of phytohemagglutinine and phorbol-12-myristate-13-acetate to the culture medium and were incubated for a time period of 72 h in the presence of the above-mentioned inhibitors single and in combination. Subsequently, the number of metabolically active cells was determined by using the commercially available WST-1 cell proliferation assay (Takara Inc.) in accordance with the provisions of the manufacturer.

[5] = system: human T cell line KARPAS-299; experiment: WST-1 cell proliferation assay, KARPAS-299 cells; details: single and simultaneous administration of I49 and APN inhibitors Actinonin and Probestin (FIG. 8)
Procedure: FIG. 8: The KARPAS-299 cells were incubated without addition (control) and in the presence of single inhibitors mentioned above as well as in the presence of combinations thereof, respectively. Subsequently, the number of metabolically active cells was determined by using the commercially available WST-1 cell proliferation assay (Takara Inc.) in accordance with the provisions of the manufacturer.

[6] = single and simultaneous administration of I49 and Actinonin, PHA, 72 h (FIG. 7)
[7] = simultaneous administration of DP IV inhibitor I49 and APN inhibitor Actinonin, dose-dependent (FIG. 1)
[8] = simultaneous administration of DP IV inhibitor I49 and APN inhibitor actinonine, dose-dependent (FIG. 2)
[9] = simultaneous administration of DP IV inhibitor I49 and prolyl oligopeptidase inhibitor Boc-Ala-thiazolidid, dose-dependent (FIG. 3)
[10] = simultaneous administration of DP IV inhibitor I49 and prolyl oligopeptidase inhibitor Boc-Ala-Thiazolidid, dose-dependent (FIG. 4)
[11] = simultaneous administration of DP IV inhibitor I49 and ACE inhibitor Captopril, dose-dependent (FIG. 5)
[12] = simultaneous administration of DP IV inhibitor I49 and ACE inhibitor Captopril, dose-dependent (FIG. 6)
[13] = single or simultaneous administration of I49 and APP inhibitor Apstatin, PHA-activated, 72 h (FIG. 10)

| SMILES | inhibition of proliferation (number of metabolically active cells) [1, 6] | inhibition of DNA synthesis [2, 7] | inhibition of DNA synthesis [3, 8] | inhibition of proliferation (number of metabolically active cells) [4] | inhibition of proliferation (number of metabolically active cells) [5] | inhibition of DNA synthesis [2, 9] | inhibition of DNA synthesis [3, 10] | inhibition of DNA synthesis [2, 11] | inhibition of DNA synthesis [3, 12] | inhibition of proliferation (number of metabolically active cells) [1, 13] |
| --- | --- | --- | --- | --- | --- | --- | --- | --- | --- | --- |
| CCCCC[C@H](CC(=O)NO)C(=O)N[C@H](C(=O)N1CCC[C@H]1CO)C(C)C [Actinonin] | Inhibition of the Proliferation | inhibited in a superadditive manner | inhibited in a superadditive manner | Inhibition of the Proliferation | Inhibition of the Proliferation | – | – | – | – | – |
| CC(C)C[C@H](NC(=O)[C@@H](O)[C@H](N)Cc1ccccc1)C(=O)N1CCC[C@H]1C(=O)N1CCC[C@H]1C(=O)O [Probestin] | – | – | – | Inhibition of the Proliferation | Inhibition of the Proliferation | – | – | – | – | – |
| CC(NC(=O)OC(C)(C)C)C(=O)N1CCSC1 (stereo not drawn) [Boc-Ala-thiazolidid] | – | – | – | – | – | inhibited in a superadditive manner | inhibited in a superadditive manner | – | – | – |
| C[C@H](CS)C(=O)N1CCC[C@H]1C(=O)O [Captopril] | – | – | – | – | – | – | – | inhibited in a superadditive manner | inhibited in a superadditive manner | – |
| NC(CCCCNC(=O)OCc1ccc([N+](=O)[O-])cc1)C(=O)N1CCSC1 (stereo not shown) [I49, Lys[Z(NO2)]-thiazolidid] | Inhibition of the Proliferation | inhibited in a superadditive manner | inhibited in a superadditive manner | Inhibition of the Proliferation | Inhibition of the Proliferation | inhibited in a superadditive manner | inhibited in a superadditive manner | inhibited in a superadditive manner | inhibited in a superadditive manner | Inhibition of the Proliferation |
| C[C@H](NC(=O)[C@@H]1CCCN1C(=O)[C@@H]1CCCN1C(=O)[C@@H](O)[C@H](N)Cc1ccccc1)C(N)=O [Apstatin] | – | – | – | – | – | – | – | – | – | Inhibition of the Proliferation |
